Test results: the supplement of paper PMC13386468

Columns and labels:
Assay in all cases: IC50 for competition of protein binding to Kinobeads
Conditions in all cases: assay detail: Kinobeads competition in P. falciparum blood-stage lysate
UniProt C0H4A6 = biological target: UniProt C0H4A6
UniProt C0H4M6 = biological target: UniProt C0H4M6
UniProt C6KSV2 = biological target: UniProt C6KSV2
UniProt C6KSX2 = biological target: UniProt C6KSX2
UniProt C6KT13 = biological target: UniProt C6KT13
UniProt C6KT82 = biological target: UniProt C6KT82
UniProt C6KTA7 = biological target: UniProt C6KTA7
UniProt C6KTB9 = biological target: UniProt C6KTB9
UniProt O77323 = biological target: UniProt O77323
UniProt O77376 = biological target: UniProt O77376
UniProt O77396 = biological target: UniProt O77396
UniProt O96198 = biological target: UniProt O96198
UniProt O96220 = biological target: UniProt O96220
UniProt Q76NM8 = biological target: UniProt Q76NM8
UniProt Q8I1Z8 = biological target: UniProt Q8I1Z8
UniProt Q8I2P2 = biological target: UniProt Q8I2P2
UniProt Q8I2S6 = biological target: UniProt Q8I2S6
UniProt Q8I3I6 = biological target: UniProt Q8I3I6
UniProt Q8I3L4 = biological target: UniProt Q8I3L4
UniProt Q8I5A9 = biological target: UniProt Q8I5A9
UniProt Q8I5Y3 = biological target: UniProt Q8I5Y3
UniProt Q8I608 = biological target: UniProt Q8I608
UniProt Q8I6S4 = biological target: UniProt Q8I6S4
UniProt Q8IAM2 = biological target: UniProt Q8IAM2
UniProt Q8IAU0 = biological target: UniProt Q8IAU0
UniProt Q8IBN1 = biological target: UniProt Q8IBN1
UniProt Q8IBV7 = biological target: UniProt Q8IBV7
UniProt Q8ID33 = biological target: UniProt Q8ID33
UniProt Q8ID59 = biological target: UniProt Q8ID59
UniProt Q8IDD4 = biological target: UniProt Q8IDD4
UniProt Q8IDF9 = biological target: UniProt Q8IDF9
UniProt Q8IDR5 = biological target: UniProt Q8IDR5
UniProt Q8IEE5 = biological target: UniProt Q8IEE5
UniProt Q8II27 = biological target: UniProt Q8II27
UniProt Q8II42 = biological target: UniProt Q8II42
UniProt Q8II61 = biological target: UniProt Q8II61
UniProt Q8IIH7 = biological target: UniProt Q8IIH7
UniProt Q8IIJ6 = biological target: UniProt Q8IIJ6
UniProt Q8IIU5 = biological target: UniProt Q8IIU5
UniProt Q8IJ99 = biological target: UniProt Q8IJ99
UniProt Q8IJS1 = biological target: UniProt Q8IJS1
UniProt Q8IJW4 = biological target: UniProt Q8IJW4
UniProt Q8IKB0 = biological target: UniProt Q8IKB0
UniProt Q8IL56 = biological target: UniProt Q8IL56
UniProt Q8ILC1 = biological target: UniProt Q8ILC1
UniProt Q8ILG6 = biological target: UniProt Q8ILG6
UniProt Q8ILK1 = biological target: UniProt Q8ILK1
UniProt Q8ILL3 = biological target: UniProt Q8ILL3
UniProt Q8ILQ8 = biological target: UniProt Q8ILQ8
UniProt Q8IM26 = biological target: UniProt Q8IM26
UniProt Q9U0K8 = biological target: UniProt Q9U0K8
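Note: native unpurified kinases from lysate captured on beads bearing immobilized kinase inhibitors, with bead-bound kinases quantified by mass spectrometry across compound doses.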

UniProt O77323, sequence (O77323 whole entry): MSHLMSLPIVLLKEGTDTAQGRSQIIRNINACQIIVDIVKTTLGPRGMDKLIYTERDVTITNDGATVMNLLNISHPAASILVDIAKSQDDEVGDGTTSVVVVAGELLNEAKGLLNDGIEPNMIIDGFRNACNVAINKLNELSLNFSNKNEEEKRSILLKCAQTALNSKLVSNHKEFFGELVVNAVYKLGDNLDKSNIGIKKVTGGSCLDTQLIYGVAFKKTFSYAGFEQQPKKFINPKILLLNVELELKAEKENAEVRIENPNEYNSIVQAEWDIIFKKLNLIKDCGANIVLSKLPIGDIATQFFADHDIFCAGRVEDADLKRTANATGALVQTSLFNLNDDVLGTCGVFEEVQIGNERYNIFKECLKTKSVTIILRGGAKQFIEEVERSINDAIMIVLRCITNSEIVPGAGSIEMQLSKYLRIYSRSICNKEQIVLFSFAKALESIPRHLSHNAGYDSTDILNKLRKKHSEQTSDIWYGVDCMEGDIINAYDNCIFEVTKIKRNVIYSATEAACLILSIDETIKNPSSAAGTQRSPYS
UniProt Q8IIJ6, sequence (Q8IIJ6 whole entry): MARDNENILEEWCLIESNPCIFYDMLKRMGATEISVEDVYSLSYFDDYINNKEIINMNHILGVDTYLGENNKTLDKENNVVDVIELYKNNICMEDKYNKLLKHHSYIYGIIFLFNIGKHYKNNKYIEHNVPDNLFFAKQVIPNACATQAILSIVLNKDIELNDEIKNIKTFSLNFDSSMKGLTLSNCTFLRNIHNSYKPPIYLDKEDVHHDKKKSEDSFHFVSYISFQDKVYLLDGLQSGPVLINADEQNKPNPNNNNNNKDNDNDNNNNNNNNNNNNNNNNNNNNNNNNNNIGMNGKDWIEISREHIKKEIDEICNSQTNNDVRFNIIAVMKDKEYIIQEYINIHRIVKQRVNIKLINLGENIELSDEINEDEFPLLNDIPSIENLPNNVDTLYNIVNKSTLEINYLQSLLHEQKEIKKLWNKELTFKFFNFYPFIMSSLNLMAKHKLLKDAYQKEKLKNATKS
UniProt Q8ILC1, sequence (Q8ILC1 whole entry): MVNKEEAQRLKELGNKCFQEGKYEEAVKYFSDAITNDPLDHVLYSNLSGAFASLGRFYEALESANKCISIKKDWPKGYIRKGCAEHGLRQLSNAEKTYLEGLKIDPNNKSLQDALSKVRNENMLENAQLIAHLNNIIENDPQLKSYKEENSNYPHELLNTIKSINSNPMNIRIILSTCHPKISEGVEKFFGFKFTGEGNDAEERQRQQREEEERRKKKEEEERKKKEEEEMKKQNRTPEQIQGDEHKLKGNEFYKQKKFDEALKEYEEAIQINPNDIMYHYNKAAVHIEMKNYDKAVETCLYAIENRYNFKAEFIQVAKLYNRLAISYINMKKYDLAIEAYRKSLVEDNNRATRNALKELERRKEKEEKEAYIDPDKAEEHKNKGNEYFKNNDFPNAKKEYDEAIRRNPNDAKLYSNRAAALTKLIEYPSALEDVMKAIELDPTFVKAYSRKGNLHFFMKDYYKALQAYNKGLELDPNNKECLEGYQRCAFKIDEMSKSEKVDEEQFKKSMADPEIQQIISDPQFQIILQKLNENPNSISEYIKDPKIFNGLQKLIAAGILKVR

In the case of O=c1[nH]c2ccc(Cl)cc2c(NC2CN3CCC2CC3)c1-c1nc2ccccc2[nH]1 (stereo unspecified) [CHIR-124], the IC50 (UniProt C0H4A6) is reported as > 20 µM, the IC50 (UniProt C0H4M6) is reported as > 20 µM and the IC50 (UniProt C6KSV2) is reported as > 20 µM. For the same molecule, the IC50 (UniProt C6KSX2) was > 20 µM, the IC50 (UniProt C6KT13) was > 20 µM and the IC50 (UniProt C6KT82) was > 20 µM. For the same molecule, the IC50 (UniProt C6KTA7) was > 20 µM, the IC50 (UniProt C6KTB9) was > 20 µM and the IC50 (UniProt O77323) was > 20 µM. The IC50 (UniProt O77376) was > 20 µM, the IC50 (UniProt O77396) was > 20 µM and the IC50 (UniProt O96198) was > 20 µM. For the same molecule, the IC50 (UniProt O96220) was > 20 µM, the IC50 (UniProt Q76NM8) was > 20 µM and the IC50 (UniProt Q8I1Z8) was > 20 µM. The IC50 (UniProt Q8I2P2) was > 20 µM, the IC50 (UniProt Q8I2S6) was > 20 µM and the IC50 (UniProt Q8I3I6) was > 20 µM. The IC50 (UniProt Q8I3L4) was > 20 µM, the IC50 (UniProt Q8I5A9) was > 20 µM and the IC50 (UniProt Q8I5Y3) was > 20 µM. The IC50 (UniProt Q8I608) was > 20 µM, the IC50 (UniProt Q8I6S4) was > 20 µM and the IC50 (UniProt Q8IAM2) was > 20 µM. For the same molecule, the IC50 (UniProt Q8IAU0) was > 20 µM, the IC50 (UniProt Q8IBN1) was > 20 µM and the IC50 (UniProt Q8IBV7) was > 20 µM. For the same molecule, the IC50 (UniProt Q8ID33) was > 20 µM, the IC50 (UniProt Q8ID59) was > 20 µM and the IC50 (UniProt Q8IDD4) was > 20 µM. The IC50 (UniProt Q8IDF9) was > 20 µM, the IC50 (UniProt Q8IDR5) was > 20 µM and the IC50 (UniProt Q8IEE5) was > 20 µM. The IC50 (UniProt Q8II27) was > 20 µM, the IC50 (UniProt Q8II42) was > 20 µM and the IC50 (UniProt Q8II61) was > 20 µM. The IC50 (UniProt Q8IIH7) was > 20 µM, the IC50 (UniProt Q8IIJ6) was > 20 µM and the IC50 (UniProt Q8IIU5) was > 20 µM. For the same molecule, the IC50 (UniProt Q8IJ99) was > 20 µM, the IC50 (UniProt Q8IJS1) was > 20 µM and the IC50 (UniProt Q8IJW4) was > 20 µM. The IC50 (UniProt Q8IKB0) was > 20 µM, the IC50 (UniProt Q8IL56) was > 20 µM and the IC50 (UniProt Q8ILC1) was > 20 µM. The IC50 (UniProt Q8ILG6) was > 20 µM, the IC50 (UniProt Q8ILK1) was > 20 µM and the IC50 (UniProt Q8ILL3) was > 20 µM. The IC50 (UniProt Q8ILQ8) was > 20 µM, the IC50 (UniProt Q8IM26) was > 20 µM and the IC50 (UniProt Q9U0K8) was 5.2 µM.
